Values of other authors in patent US20150265628A1, “GENOMIC TESTING FOR EFFECTIVE THERAPIES AND DETERMINATION OF DOSING STRATEGY” (CompanionDx Reference Lab, LLC, priority 2014, published 2015).

How the values were obtained:
[1] = patients with schizophrenia, while taking the drug; perphenazine 1.0 as comparator
HLA-DQB1 = conditions: marker carriers, under the current blood-monitoring system

SMILES: CN1CCN(C2=Nc3cc(Cl)ccc3Nc3ccccc32)CC1 [clozapine]
- risk of death from suicide, adjusted for risk factors [1]: 0.34
- risk of CIA higher than the overall clozapine-treated population (HLA-DQB1): 1,175%

SMILES: OCCN1CCN(CCCN2c3ccccc3Sc3ccc(Cl)cc32)CC1 [perphenazine]
- risk of death from suicide, adjusted for risk factors [1]: 1.0

SMILES: OCCOCCN1CCN(C2=Nc3ccccc3Sc3ccccc32)CC1 [quetiapine]
- risk of death from suicide, adjusted for risk factors [1]: 1.58
